Measurements reported in patent US20240246942A1, “KINASE INHIBITORS FOR THE TREATMENT OF NEURODEGENERATIVE DISEASES” (priority 2020, published 2024).
Like-named read-outs stand apart in the source and are kept apart here.

Columns and labels:
[1] = target: T1, panel of 374 wild-type kinases (Homo sapiens, UniProt Q12852); assay: biochemical; conditions: read-out: % Enzyme Activity (relative to DMSO controls), DLK/MAP3K12; 5 uM
T1 construct: purchased Reaction Biology Corporation

[2] = target: T2, panel of 374 wild-type kinases (Homo sapiens, UniProt Q56UN5); assay: biochemical; conditions: read-out: % Enzyme Activity (relative to DMSO controls), kinase YSK4/MAP3K19
T2 construct: purchased Reaction Biology Corporation
T2 sequence (Q56UN5 whole entry): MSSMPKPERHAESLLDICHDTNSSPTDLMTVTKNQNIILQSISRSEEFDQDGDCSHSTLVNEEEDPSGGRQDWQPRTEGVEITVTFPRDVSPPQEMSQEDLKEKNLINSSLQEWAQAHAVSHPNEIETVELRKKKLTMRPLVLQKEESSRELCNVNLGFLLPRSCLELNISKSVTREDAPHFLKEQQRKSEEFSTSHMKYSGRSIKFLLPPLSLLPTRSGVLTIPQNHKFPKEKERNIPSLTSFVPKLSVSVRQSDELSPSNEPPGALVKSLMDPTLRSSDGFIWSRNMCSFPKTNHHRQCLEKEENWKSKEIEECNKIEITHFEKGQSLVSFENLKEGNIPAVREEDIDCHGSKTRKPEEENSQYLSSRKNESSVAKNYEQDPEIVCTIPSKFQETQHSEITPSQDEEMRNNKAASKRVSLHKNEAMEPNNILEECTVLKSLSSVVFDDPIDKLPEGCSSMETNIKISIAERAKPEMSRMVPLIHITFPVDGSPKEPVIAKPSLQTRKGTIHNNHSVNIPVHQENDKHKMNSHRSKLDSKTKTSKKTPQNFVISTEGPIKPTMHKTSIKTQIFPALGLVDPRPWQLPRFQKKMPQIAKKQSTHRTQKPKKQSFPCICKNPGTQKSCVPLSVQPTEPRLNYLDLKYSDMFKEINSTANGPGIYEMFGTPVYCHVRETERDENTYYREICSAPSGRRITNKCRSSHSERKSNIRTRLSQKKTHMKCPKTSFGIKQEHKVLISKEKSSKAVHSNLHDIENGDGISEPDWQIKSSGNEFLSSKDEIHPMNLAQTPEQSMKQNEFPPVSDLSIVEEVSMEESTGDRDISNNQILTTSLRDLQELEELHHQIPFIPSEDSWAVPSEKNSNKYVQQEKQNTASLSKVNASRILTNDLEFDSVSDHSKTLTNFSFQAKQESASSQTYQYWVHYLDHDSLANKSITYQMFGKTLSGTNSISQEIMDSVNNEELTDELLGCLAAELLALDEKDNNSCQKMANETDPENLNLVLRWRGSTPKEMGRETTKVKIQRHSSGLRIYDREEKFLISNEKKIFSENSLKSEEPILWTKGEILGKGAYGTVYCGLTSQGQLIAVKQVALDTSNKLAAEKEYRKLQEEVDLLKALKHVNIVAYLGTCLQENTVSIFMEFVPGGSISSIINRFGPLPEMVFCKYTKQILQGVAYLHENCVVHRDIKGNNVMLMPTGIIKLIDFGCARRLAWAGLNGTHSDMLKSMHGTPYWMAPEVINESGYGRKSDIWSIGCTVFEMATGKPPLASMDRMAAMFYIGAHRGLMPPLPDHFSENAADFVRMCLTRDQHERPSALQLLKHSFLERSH

[3] = target: T3, panel of 374 wild-type kinases (Homo sapiens, UniProt O14578); assay: biochemical; conditions: read-out: % Enzyme Activity (relative to DMSO controls), kinase STK21/CIT
T3 construct: purchased Reaction Biology Corporation

[4] = target: T4, panel of 374 wild-type kinases (Homo sapiens, UniProt Q9Y572); assay: biochemical; conditions: read-out: % Enzyme Activity (relative to DMSO controls), kinase RIPK3; 5 uM
T4 construct: purchased Reaction Biology Corporation
T4 sequence (Q9Y572 whole entry): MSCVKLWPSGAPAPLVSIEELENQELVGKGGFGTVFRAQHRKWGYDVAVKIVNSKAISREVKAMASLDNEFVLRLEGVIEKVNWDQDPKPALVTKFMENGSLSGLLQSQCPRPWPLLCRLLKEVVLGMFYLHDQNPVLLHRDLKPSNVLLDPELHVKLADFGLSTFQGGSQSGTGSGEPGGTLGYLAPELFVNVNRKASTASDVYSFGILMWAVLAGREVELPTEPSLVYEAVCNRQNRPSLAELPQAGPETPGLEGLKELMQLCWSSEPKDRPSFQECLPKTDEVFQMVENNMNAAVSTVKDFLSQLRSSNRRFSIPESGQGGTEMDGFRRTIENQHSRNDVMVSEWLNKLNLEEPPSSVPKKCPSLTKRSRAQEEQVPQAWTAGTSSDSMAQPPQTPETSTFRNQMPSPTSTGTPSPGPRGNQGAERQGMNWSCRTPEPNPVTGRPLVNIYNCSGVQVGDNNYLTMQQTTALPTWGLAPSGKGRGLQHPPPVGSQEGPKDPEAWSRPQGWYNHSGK

[5] = target: T5, panel of 374 wild-type kinases (Homo sapiens, UniProt P30291); assay: biochemical; conditions: read-out: % Enzyme Activity (relative to DMSO controls), kinase WEE1; 5 uM
T5 construct: purchased Reaction Biology Corporation

[6] = target: T6, panel of 374 wild-type kinases (Homo sapiens, UniProt Q00534); assay: biochemical; conditions: 5 uM
T6 construct: purchased Reaction Biology Corporation
T6 sequence (Q00534 whole entry): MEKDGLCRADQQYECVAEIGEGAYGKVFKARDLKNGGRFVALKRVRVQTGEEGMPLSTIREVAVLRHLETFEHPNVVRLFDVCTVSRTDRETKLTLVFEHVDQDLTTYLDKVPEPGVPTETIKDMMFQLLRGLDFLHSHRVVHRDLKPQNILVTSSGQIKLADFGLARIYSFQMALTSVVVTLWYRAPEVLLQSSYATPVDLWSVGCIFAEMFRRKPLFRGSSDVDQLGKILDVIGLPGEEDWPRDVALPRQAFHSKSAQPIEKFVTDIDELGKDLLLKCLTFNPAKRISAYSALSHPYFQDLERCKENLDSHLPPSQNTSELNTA

[7] = target: T7, panel of 374 wild-type kinases (Homo sapiens, UniProt O14757); assay: biochemical; conditions: read-out: % Enzyme Activity (relative to DMSO controls), CHK1
T7 construct: purchased Reaction Biology Corporation
T7 sequence (O14757 1-476): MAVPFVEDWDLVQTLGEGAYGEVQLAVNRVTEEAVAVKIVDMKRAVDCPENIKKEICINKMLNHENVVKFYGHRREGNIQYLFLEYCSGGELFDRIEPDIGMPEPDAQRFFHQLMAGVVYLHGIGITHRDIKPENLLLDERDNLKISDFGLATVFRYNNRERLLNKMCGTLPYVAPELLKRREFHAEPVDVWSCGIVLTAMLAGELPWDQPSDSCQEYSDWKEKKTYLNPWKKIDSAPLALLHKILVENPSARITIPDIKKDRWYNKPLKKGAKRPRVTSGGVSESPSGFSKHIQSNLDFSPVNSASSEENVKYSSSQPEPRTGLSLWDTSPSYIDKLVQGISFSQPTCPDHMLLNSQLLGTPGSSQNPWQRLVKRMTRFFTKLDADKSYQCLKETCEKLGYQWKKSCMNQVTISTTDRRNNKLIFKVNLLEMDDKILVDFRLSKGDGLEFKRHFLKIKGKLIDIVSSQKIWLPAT

[8] = target: T8, panel of 374 wild-type kinases (Homo sapiens, UniProt Q8IY84); assay: biochemical; conditions: read-out: % Enzyme Activity (relative to DMSO controls), NIM1; 5 uM
T8 construct: purchased Reaction Biology Corporation

[9] = Microsomal stability, mouse; assay type: in vitro ADME; conditions: mouse microsomes
[10] = target: CYP3A4 (Homo sapiens, UniProt P08684); assay: P450 cocktail inhibition assay, CYP3A4; assay type: in vitro ADME; conditions: at 10 μM
Sequence of CYP3A4 (P08684 whole entry, canonical isoform): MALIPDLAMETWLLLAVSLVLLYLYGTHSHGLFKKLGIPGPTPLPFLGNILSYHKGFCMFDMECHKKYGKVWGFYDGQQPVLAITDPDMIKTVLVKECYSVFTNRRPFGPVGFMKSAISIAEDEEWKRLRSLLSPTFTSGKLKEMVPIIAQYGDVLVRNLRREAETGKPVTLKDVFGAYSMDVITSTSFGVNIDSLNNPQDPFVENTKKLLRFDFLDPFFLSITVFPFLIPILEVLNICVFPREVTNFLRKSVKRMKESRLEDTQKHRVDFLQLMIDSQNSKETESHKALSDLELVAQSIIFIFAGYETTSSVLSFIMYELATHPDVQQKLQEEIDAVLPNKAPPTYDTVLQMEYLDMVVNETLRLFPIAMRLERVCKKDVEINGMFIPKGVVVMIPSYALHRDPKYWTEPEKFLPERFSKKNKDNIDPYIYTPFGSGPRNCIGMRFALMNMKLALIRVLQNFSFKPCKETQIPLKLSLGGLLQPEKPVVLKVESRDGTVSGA
Experimental: (§1) P450s inhibition for four major isoforms are evaluated using a cocktail inhibition assay where the metabolism of specific marker substrate (CYP1A2 phenaceten […] to acetaminophen); CYP2C9, tolbutamide hydroxylation to hydrocytolbutamide; CYP2D6, bufuralol hydroxylation to […]; and CYP3A4, midazolam hydroxylation to 1′-Hydroxymidazolam) in the presence or absence of 10 TM probe compound is evaluated. The concentration of each marker substrate is approximately its Km. […] Specific inhibitors for each isoform are included in each run to validate the system.

[11] = target: CYP2D6 (Homo sapiens, UniProt P10635); assay: P450 cocktail inhibition assay, CYP2D6; assay type: in vitro ADME; conditions: at 10 μM
Sequence of CYP2D6 (P10635 whole entry): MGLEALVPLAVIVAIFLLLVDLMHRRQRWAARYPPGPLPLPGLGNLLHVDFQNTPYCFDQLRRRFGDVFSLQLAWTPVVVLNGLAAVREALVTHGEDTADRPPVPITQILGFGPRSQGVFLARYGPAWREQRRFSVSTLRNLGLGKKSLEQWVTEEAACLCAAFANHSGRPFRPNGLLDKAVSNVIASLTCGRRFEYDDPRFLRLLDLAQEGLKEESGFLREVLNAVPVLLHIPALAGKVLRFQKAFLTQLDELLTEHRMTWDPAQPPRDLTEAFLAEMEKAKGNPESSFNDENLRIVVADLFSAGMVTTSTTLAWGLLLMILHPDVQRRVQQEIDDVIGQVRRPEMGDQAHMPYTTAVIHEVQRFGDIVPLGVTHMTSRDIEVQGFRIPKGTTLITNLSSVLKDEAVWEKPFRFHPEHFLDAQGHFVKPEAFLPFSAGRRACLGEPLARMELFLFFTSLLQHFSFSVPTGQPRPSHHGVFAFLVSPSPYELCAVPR
Experimental: as §1

[12] = target: T9, CYP1A2 (Homo sapiens, UniProt P05177); assay: P450 cocktail inhibition assay, CYP1A2; assay type: in vitro ADME; conditions: at 10 μM
T9 sequence (P05177 1-516): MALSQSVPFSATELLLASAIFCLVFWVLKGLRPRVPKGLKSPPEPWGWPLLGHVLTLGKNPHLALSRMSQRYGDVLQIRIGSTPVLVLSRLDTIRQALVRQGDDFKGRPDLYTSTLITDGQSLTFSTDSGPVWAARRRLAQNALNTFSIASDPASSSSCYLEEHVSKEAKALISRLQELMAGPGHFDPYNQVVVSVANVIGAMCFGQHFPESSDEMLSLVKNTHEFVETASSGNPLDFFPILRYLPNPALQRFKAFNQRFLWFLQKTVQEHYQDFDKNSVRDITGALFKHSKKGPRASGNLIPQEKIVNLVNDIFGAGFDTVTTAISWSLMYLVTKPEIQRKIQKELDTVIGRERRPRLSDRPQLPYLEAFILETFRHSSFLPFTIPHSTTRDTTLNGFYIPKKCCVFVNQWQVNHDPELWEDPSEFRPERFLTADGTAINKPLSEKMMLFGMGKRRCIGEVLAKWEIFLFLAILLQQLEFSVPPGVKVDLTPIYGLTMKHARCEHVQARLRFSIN
Experimental: as §1

[13] = test system: SHSY5Y cells; assay: MTT cytotoxicity assay; assay type: cell-based; set-up: dose or concentration left out as unconfirmed; conditions: 48 hrs, average of ≥2 experiments;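 further: compounds tested at 10 µM final concentration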
Experimental: A day before the assay, cells were plated at 50,000/well in 96 well plates in the culture medium. […] After the incubation, cells were subjected to MTT assay using Vybrant MTT Cell Proliferation kit as directed by the vendor (Life Technologies).

[14] = Microsomal stability, human; assay type: in vitro ADME; conditions: human microsomes
[15] = target: CYP2C9 (Homo sapiens, UniProt P11712); assay: P450 cocktail inhibition assay, CYP2C9; assay type: in vitro ADME; conditions: at 10 μM
Sequence of CYP2C9 (P11712 whole entry): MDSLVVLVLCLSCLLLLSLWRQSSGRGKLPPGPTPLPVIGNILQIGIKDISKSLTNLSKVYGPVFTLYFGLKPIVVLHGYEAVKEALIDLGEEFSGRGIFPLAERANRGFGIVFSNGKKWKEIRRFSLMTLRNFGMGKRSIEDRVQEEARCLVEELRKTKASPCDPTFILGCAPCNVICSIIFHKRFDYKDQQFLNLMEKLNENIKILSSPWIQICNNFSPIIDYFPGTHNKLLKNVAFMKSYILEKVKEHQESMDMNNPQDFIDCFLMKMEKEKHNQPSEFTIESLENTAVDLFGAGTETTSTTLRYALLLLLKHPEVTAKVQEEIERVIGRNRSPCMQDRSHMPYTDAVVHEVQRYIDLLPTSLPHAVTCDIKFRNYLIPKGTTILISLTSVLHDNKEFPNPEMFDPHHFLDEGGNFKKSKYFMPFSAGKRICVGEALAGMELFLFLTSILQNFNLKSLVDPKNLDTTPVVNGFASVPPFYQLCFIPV
Experimental: as §1

[16] = target: T10, panel of 374 wild-type kinases (Homo sapiens, UniProt O60307); assay: biochemical; conditions: read-out: % Enzyme Activity (relative to DMSO controls), MAST3
T10 construct: purchased Reaction Biology Corporation

[17] = target: T11, panel of 374 wild-type kinases (Homo sapiens, UniProt O15111); assay: biochemical; conditions: read-out: % Enzyme Activity (relative to DMSO controls), IKKa/CHUK
T11 construct: purchased Reaction Biology Corporation
T11 sequence (O15111 whole entry): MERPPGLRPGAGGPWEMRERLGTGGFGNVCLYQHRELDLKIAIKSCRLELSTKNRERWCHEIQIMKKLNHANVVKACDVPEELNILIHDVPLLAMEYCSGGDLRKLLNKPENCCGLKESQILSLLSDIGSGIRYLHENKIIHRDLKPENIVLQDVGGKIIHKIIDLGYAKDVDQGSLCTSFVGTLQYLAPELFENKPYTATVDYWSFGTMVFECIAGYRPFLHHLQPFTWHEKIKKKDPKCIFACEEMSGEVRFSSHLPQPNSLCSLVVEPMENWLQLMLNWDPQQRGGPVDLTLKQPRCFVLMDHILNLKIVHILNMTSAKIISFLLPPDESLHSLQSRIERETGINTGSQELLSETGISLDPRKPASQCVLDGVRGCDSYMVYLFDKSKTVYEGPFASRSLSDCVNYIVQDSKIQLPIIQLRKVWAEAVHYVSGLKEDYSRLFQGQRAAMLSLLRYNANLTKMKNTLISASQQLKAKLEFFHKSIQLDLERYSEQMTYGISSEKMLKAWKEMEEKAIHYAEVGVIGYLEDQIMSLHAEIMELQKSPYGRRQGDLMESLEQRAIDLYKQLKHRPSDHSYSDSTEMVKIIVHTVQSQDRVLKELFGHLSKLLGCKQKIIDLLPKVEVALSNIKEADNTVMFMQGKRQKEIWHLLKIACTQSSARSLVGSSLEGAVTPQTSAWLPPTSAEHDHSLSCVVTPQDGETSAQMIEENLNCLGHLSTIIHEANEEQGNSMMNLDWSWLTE

[18] = target: T12, panel of 374 wild-type kinases (Homo sapiens, UniProt P68400); assay: biochemical; conditions: CK2a, read-out: % Enzyme Activity (relative to DMSO controls)
T12 construct: purchased Reaction Biology Corporation
T12 sequence (P68400 whole entry): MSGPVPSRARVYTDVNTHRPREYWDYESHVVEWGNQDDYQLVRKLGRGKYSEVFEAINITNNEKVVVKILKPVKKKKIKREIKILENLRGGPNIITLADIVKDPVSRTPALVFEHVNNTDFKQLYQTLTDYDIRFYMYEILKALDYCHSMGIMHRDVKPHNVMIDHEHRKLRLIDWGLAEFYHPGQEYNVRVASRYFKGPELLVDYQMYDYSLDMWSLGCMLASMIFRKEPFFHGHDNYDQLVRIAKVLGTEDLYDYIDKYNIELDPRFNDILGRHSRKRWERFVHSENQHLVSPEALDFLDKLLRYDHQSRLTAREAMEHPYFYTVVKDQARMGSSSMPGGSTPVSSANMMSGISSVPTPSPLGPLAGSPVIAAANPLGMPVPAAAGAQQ

[19] = read-out: % Enzyme Activity (relative to DMSO controls), CDK6/cyclin D1
[20] = read-out: % Enzyme Activity (relative to DMSO controls), CDK6/cyclin D3

SMILES | remaining activity at 5 µM [1] [%] | remaining activity at 5 µM [4] [%] | remaining activity at 5 µM [5] [%] | remaining activity at 5 µM [6, 19] [%] | remaining activity at 5 µM [6, 20] [%] | remaining activity at 5 µM [7] [%] | remaining activity at 5 µM [8] [%] | Mic. stability t1/2 Mouse [9] [h] | CYP-450 % inh. 3A4 [10] [%] | CYP-450 % inh. 2D6 [11] [%] | CYP-450 % inh. 1A2 [12] [%] | MTT cell viability [13] [%] | Mic. stability t1/2 Human [14] [h] | CYP-450 % inh. 2C9 [15] [%] | further results
O=C(Nc1cnn(-c2csc(C(=O)NC3COC3)c2)c1)Nc1ccccc1Cl [Compound 17, 4-(4-(3-(2-chlorophenyl)ureido)-1H-pyrazol-1-yl)-N-(oxetan-3-yl)thiophene-2-carboxamide] | 96.5 | 101 | 124 | 95.4 | 114 | 98.7 | 101 | 0.4 | −34 | −15 | 6 | 104 | 1.1 | 8 | remaining activity at 5 µM ([2]; 5 uM): 105%; remaining activity at 5 µM ([3]; 5 uM): 90.1%
Cc1sc(C(=O)NC2COC2)cc1-n1cc(NC(=O)Nc2c(F)cccc2Cl)cn1 [Compound 27, 4-(4-(3-(2-chloro-6-fluorophenyl)ureido)-1H-pyrazol-1-yl)-5-methyl-N-(oxetan-3-yl)thiophene-2-carboxamide] |  |  |  |  |  |  |  | 0.95 | 16 | 1 | 22 | 111 | 1.83 | 33 | remaining activity at 10 µM ([2]; 10 uM): 95.5%; remaining activity at 10 µM ([3]; 10 uM): 98.8%; remaining activity at 10 µM ([7]; 10 uM): 118%; remaining activity at 10 µM ([16]; 10 uM): 96.7%; remaining activity at 10 µM ([17]; 10 uM): 101%; remaining activity at 10 µM ([18]; 10 uM): 97%
O=C(Nc1cnn(-c2csc(C(=O)NC3COC3)c2)c1)Nc1c(F)cccc1Cl [Compound 25, 4-(4-(3-(2-chloro-6-fluorophenyl)ureido)-1H-pyrazol-1-yl)-N-(oxetan-3-yl)thiophene-2-carboxamide] | 82.2 | 97.5 | 85.2 | 105 | 92.6 | 141 | 70.7 | 1.2 | 24 | 31 | 36 | 102 | 1.67 | 48 | remaining activity at 5 µM ([16]; 5 uM): 108%; remaining activity at 5 µM ([17]; 5 uM): 108%; remaining activity at 5 µM ([18]; 5 uM): 90.5%
